# Assay results taken from patent US8158621B2, “Methods of treating or preventing autoimmune diseases with 2,4-pyrimidinediamine compounds” (Rigel Pharmaceuticals, Inc., priority 2002, dated 2012).
# System: Human Jurkat T-cells (clone N)
# Test: Jurkat T-cell activation (anti-TCR, CD69 upregulation)
# Format: cell-based
# Conditions: not given
# Method: The screening process took place over three days.
# On the first day of the screen, cultured cells were spun down on a centrifuge (1000 rpm, 5 minutes) and resuspended at 3.0×10^5 cells/ml in RPMI+5% FBS. On the second day of the screen, cells were spun down at 1000 rpm for 5 minutes and resuspended in RPMI+5% FBS at 1.3×10^5 cells/ml. 85 μl of this cell suspension were added to the wells of U-bottom 96 well plates (Corning) 85 μl of compound or diluted RPMI+5% FBS (as a control) only was added to each well and incubated at 37° C. for 1 hour. The cells were then stimulated with anti-TCR (C305) at: 500 ng/ml by adding a 8× solution in 25 μl to the plated cells. The cells were then incubated at 37° C. for 20 hrs.
# On the third day of the screen, the plates were spun at 2500 RPM for 1 minute on a Beckman GS-6R centrifuge, and the medium was then removed. 50 μl staining solution (1:100 dilution of anti-CD69-APC antibody (Becton Dickenson) in PBS+2% FBS) was then added to each well, followed by incubation of the plates 4 degrees for 20 minutes in the dark. 150 μl of wash buffer (PBS+2% FBS) was then added to each well, and the plates were spun at 3000 RPM for 1 minute. The supernatant was again removed, and the pellet was resuspended by vortexing gently. 75 μl of PBS+2% FBS +Cytofix (1:4 dilution) was then added, the plates gently vortexed and wrap in aluminum foil. Cells from the plates were read using a flow cytometer coupled to an automated liquid handling system.
# Varied concentrations of compound were compared to solvent only to determine the inhibition of T-cell activation IC50 of each compound.
row,Structure (SMILES),IC50 [µM]
1,O=C(CNc1cccc(Nc2ncc(F)c(Nc3ccc4c(c3)OCCO4)n2)c1)NCCO [Compound R950195],1.8
2,CNC(=O)COc1cccc(Nc2ncc(F)c(Nc3ccc4c(c3)C(=O)CCC4)n2)c1 [Compound R926947],13.3
3,CNC(=O)COc1cccc(Nc2ncc(F)c(Nc3cccc(N)c3)n2)c1 [Compound R950263],1.91
4,COC(=O)Cn1ncc2ccc(Nc3ncc(F)c(Nc4ccc5c(c4)OCCO5)n3)cc21 [Compound R935208],2.88
5,Oc1cccc(Nc2nc(Nc3ccc(OCCN4CCOCC4)cc3)ncc2F)c1 [Compound R926699],1.86
6,COC(=O)c1cc2cc(Nc3ncc(F)c(Nc4ccc5[nH]c(C(=O)OC)cc5c4)n3)ccc2[nH]1 [Compound R926593],1.28
7,CCOC(=O)COc1ccc(Nc2ncc(C(F)(F)F)c(Nc3ccc(OCC(=O)OCC)cc3)n2)cc1 [Compound R925862],> 10
8,CNC(=O)COc1cccc(Nc2ncc(F)c(Nc3cccc(C(C)(C)C)c3)n2)c1 [Compound R940276],2.53
9,NC(=O)Cn1c(=O)oc2ccc(Nc3ncc(F)c(Nc4ccc5c(c4)OCCO5)n3)cc21 [Compound R926847],11.8
10,O=C(c1cc2cc(Nc3ncc(F)c(Nc4ccc5c(c4)OCCO5)n3)ccc2o1)N1CCNCC1 [Compound R926499],0.56
11,COC(=O)COc1ccc(Nc2ncc(F)c(Nc3ccc(OC(C)C)cc3)n2)cc1 [Compound R935159],> 10
12,COC(=O)COc1ccc(Nc2ncc(F)c(Nc3ccc4c(c3)OCCCO4)n2)cc1 [Compound R935182],23.9
13,CN(CCO)C(=O)COc1cccc(Nc2ncc(F)c(Nc3ccc4c(c3)OCCO4)n2)c1 [Compound R926766],4.24
14,CNCCOc1cccc(Nc2ncc(F)c(Nc3ccc4c(c3)OCCO4)n2)c1 [Compound R926510],0.122
15,COC(=O)Cn1ncc2cc(Nc3nc(Nc4cccc(O)c4)ncc3F)ccc21 [Compound R935250],6.24
16,O=C(COc1cccc(Nc2ncc(F)c(Nc3cc(Cl)c(O)c(Cl)c3)n2)c1)N1CCNCC1 [Compound R950188],17.9
17,CC(C)Oc1ccc(Nc2nc(Nc3ccc4c(cnn4CCO)c3)ncc2F)cc1 [Compound R935255],0.668
18,Fc1cnc(Nc2cccc(OCCN3CCOCC3)c2)nc1Nc1ccc2c(c1)OCCO2 [Compound R926486],1.75
19,CCCNC(=O)COc1ccc(Nc2ncc(C#N)c(Nc3ccc(OCC(=O)NCCC)cc3)n2)cc1 [Compound R925853],> 10
20,CC(C)(CO)c1ccc(Nc2nc(Nc3ccc4c(c3)OCCO4)ncc2F)cc1 [Compound R935173],3.91
21,CCOC(=O)COc1ccc(Nc2ncc(Br)c(Nc3ccc(OCC(=O)OCC)cc3)n2)cc1 [Compound R925779],> 10
22,CCOC(=O)C1CCN(Cc2cccc(Nc3nc(Nc4cccc(OCC(=O)NC)c4)ncc3F)c2)CC1 [Compound R926905],6.49

row,Structure (SMILES),IC50 [µM]
1,CC(C)(C)OC(=O)COc1ccc(Nc2ncc(F)c(Nc3ccc(OCC(=O)OC(C)(C)C)cc3)n2)cc1 [Compound R926574],> 10
2,CC(C)Oc1ccc(Nc2nc(Nc3ccc4nn(C)cc4c3)ncc2F)cc1 [Compound R935298],2.32
3,CNC(=O)COc1cccc(Nc2ncc(F)c(Nc3ccc4c(c3)C(=O)CCO4)n2)c1 [Compound R950345],6.09
4,Cc1cc(Nc2nc(Nc3cccc(OCCN4CCOCC4)c3)ncc2F)cc(C)c1O [Compound R940255],1.51
5,Cn1ncc2cc(Nc3ncc(F)c(Nc4ccc5c(cnn5C)c4)n3)ccc21 [Compound R935192],5.39
6,O=C(CNc1cccc(Nc2ncc(F)c(Nc3cccc(NCCO)c3)n2)c1)NCCN1CCOCC1 [Compound R950239],> 10
7,O=C(COc1cccc(Nc2ncc(F)c(Nc3ccc4c(c3)OCCO4)n2)c1)NC1CC1 [Compound R926848],1.72
8,CCOC(=O)CNc1cccc(Nc2ncc(F)c(Nc3cccc(O)c3)n2)c1 [Compound R950216],3.86
9,Cc1nc(COc2cccc(Nc3ncc(F)c(Nc4ccc(OC(C)C)cc4)n3)c2)no1 [Compound R945129],6.08
10,COc1ccc(Nc2ncc(C)c(Nc3ccc(OC)c(-c4ccccc4)c3)n2)cc1-c1ccccc1 [Compound R935002],> 10
11,CNC(=O)Cn1ncc2ccc(Nc3ncc(F)c(Nc4ccc5c(c4)OCCO5)n3)cc21 [Compound R935212],4.68
12,N#Cc1cnc(Nc2cccc(O)c2)nc1Nc1ccc(OCC(=O)NCC2CC2)cc1 [Compound R925845],6.97
13,CC(C)Oc1ccc(Nc2nc(Nc3ccc4c(cnn4CCCO)c3)ncc2F)cc1 [Compound R935307],1.41
14,CC(C)Oc1ccc(Nc2ncc(F)c(Nc3ccc4c(cnn4C)c3)n2)cc1 [Compound R935203],> 10
15,CNC(=O)CNc1cccc(Nc2ncc(F)c(Nc3cccc(O)c3)n2)c1 [Compound R950218],3.43
16,CC(=O)Nc1cccc(N(C(C)=O)c2ncc(F)c(N(C(C)=O)c3cccc(N(C(C)=O)C(C)=O)c3)n2)c1 [Compound R950245],> 10
17,CS(=O)(=O)Nc1cccc(Nc2ncc(F)c(Nc3cccc(NS(C)(=O)=O)c3)n2)c1 [Compound R950100],5.67
18,COC(=O)c1ccc(Cn2cc3ccc(Nc4ncc(F)c(Nc5ccc6c(c5)OCCO6)n4)cc3n2)c(OC)c1 [Compound R935336],2.88
19,O=C(NCCO)c1cc2cc(Nc3ncc(F)c(Nc4ccc5oc(C(=O)NCCO)cc5c4)n3)ccc2o1 [Compound R950167],> 10
20,CCOC(=O)COc1cccc(Nc2ncc(C(=O)OCC)c(Nc3ccc4c(c3)OC(F)(F)C(F)(F)O4)n2)c1 [Compound R926799],> 10
21,O=C1CN=C2COc3ccc(Nc4nc(Nc5cccc(O)c5)ncc4F)cc3N12 [Compound R945236],2.92

# Same assay, conditions: Homo sapiens
row,Structure (SMILES),IC50 [µM]
1,O=[N+]([O-])c1cc(Nc2ncc(F)c(Nc3ccc(Cl)c([N+](=O)[O-])c3)n2)ccc1Cl [Compound R950149],> 10

# Same assay, conditions: Homo sapiens, Jurkat
row,Structure (SMILES),IC50 [µM]
1,COc1ccc(C(Nc2ncc(F)c(NC(c3ccc(OC)cc3)c3ccc(OC)cc3)n2)c2ccc(OC)cc2)cc1 [Compound R935004],> 10
2,CCOc1ccc(Nc2ncc(F)c(Nc3ccc(OCC)c(N)c3)n2)cc1N [Compound R950139],5.45
3,COC(=O)c1cc(Nc2ncc(F)c(Nc3ccc(O)c(C(=O)OC)c3)n2)ccc1O [Compound R945043],> 10
4,Oc1cccc(Nc2nc(NCC3COc4ccccc4O3)ncc2F)c1 (stereo not drawn) [Compound R950214],> 10
5,Fc1cnc(Nc2ccc(-n3cnc(Cl)c3Cl)cc2)nc1Nc1ccc2c(c1)OCCO2 [Compound R926788],> 10
6,Nc1nc(N(c2ccc(CO)cc2)c2ccc3c(c2)OCCO3)ncc1F [Compound R925760],20.2
7,N#Cc1ccc(Nc2ncc(F)c(Nc3ccc(C#N)cc3)n2)cc1 [Compound R945057],> 10
8,O=[N+]([O-])c1cnc(Nc2ccc3c(c2)OCCO3)nc1Nc1ccc2c(c1)OCCO2 [Compound R940095],> 10
9,CCOC(=O)c1nc(Nc2ccc3c(c2)OCCO3)nc(Nc2ccc3c(c2)OCCO3)c1[N+](=O)[O-] [Compound R925852],> 10
10,Nc1c(F)ccc(Nc2ncc(F)c(Nc3ccc(F)c(N)c3F)n2)c1F [Compound R950138],> 10
11,OCCOc1cccc(Nc2nc(Nc3cccc(O)c3)ncc2F)c1 [Compound R935170],6.03
12,N#Cc1cc(Nc2ncc(F)c(Nc3ccc(O)c(C#N)c3)n2)ccc1O [Compound R950092],> 10
13,COC(=O)c1cc2cc(Nc3ncc(F)c(Nc4cccc(C(C)(C)C)c4)n3)ccc2o1 [Compound R940281],> 10
14,Cc1ccc(N)cc1Nc1ncc(F)c(Nc2cc(N)ccc2C)n1 [Compound R950157],> 10
15,CC(C)(C)OC(=O)Nc1ccc(Nc2ncc(F)c(Nc3ccc(NC(=O)OC(C)(C)C)cc3)n2)cc1 [Compound R950120],12.1
16,Fc1cnc(Nc2cccc(-c3nnn[nH]3)c2)nc1Nc1ccc2c(c1)OCCO2 [Compound R926843],> 10
17,CC(C)(C)c1ccc(Nc2ncc(F)c(Nc3ccc(C(C)(C)C)cc3)n2)cc1 [Compound R926222],> 10
18,CCOc1ccc(Nc2cc(C(=O)OC)nc(Nc3ccc(OCC)cc3)n2)cc1 [Compound R926058],> 10
19,COc1ccc(Nc2ncc(F)c(Nc3ccc(OC)c(O)c3)n2)cc1O [Compound R926339],2.15
20,CCOC(=O)c1cc2cccc(Nc3ncc(F)c(Nc4cc(OC)cc(OC)c4)n3)c2[nH]1 [Compound R926803],> 10
21,COc1ccc(Nc2ncc(F)c(Nc3ccc(OC)cc3)n2)cc1 [Compound R926017],20.8
22,CCOC(=O)CNc1nc(NCC(=O)OCC)c(N)c(C(=O)OCC)n1 [Compound R925865],> 10
23,Nc1cccc(Nc2ncc(F)c(Nc3cccc(O)c3)n2)c1 [Compound R950227],7.11
24,O=C(c1ccccc1)c1cccc(Nc2ncc(F)c(Nc3cccc(C(=O)c4ccccc4)c3)n2)c1 [Compound R950377],5.96
25,Nc1cc(Nc2ncc(F)c(Nc3ccc(F)c(N)c3)n2)ccc1F [Compound R950159],8.45
